Patent US10159640B2, “Prebiotic oral care compositions containing amino acids” (COLGATE-PALMOLIVE COMPANY, priority 2013, dated 2018)

Tests used:
Assay type in all cases: cell-based
Veillonella parvula = test: Metabolic activity, Biolog phenotype microarray; conditions: control without dipeptide = 1
Method: (§1) The extent of metabolic activity of the tested bacteria in the presence of the above-mentioned dipeptides after 24 hours and 48 hours was investigated through a high throughput phenotype microarray system (PM) for microbial cells (Biolog Inc.). Each PM can contain up to 95 different biochemical compounds (e.g. di-peptides) that may act as substrates for bacteria as well as one negative control, not containing the substrates. Microarray plates were used in which the different wells of each plate were pre-loaded (by the manufacturer, Biolog Inc.) with different di-peptides to be tested. Each bacterial species was tested using a separate microarray plate. Thus, a single bacterial species was tested with a variety of dipeptides on each particular plate. The microarrays are based on redox technology, using cell respiration as a universal reporter. Active cell respiration results in the reduction of a tetrazolium dye and in the formation of a strong color—for example, when using the tetrazolium dye “Biolog Redox Dye Mix D”, the color changes from transparent/colourless to purple when the dye is reduced. The observation of this color change indicates which of the substrates improve the metabolic activity and health of the cells. Each bacterial species was collected from blood agar plates (incubated for 48 hours anaerobically at 37° C.) and transferred to an IF-0 Base inoculation fluid (Biolog Inc.), which is a nutritionally poor medium. The resulting cell suspension was adjusted to a transmittance of 42% (relative to the transmittance of the base inoculation fluid with no bacterial species present) at 492 nm using a BioRad SmartSpec 3000 Photometer (the adjustment being effected by adding either further inoculation fluid or further bacteria until the transmittance of 42% was achieved). A 1:5 dilution of this suspension was prepared by mixing 3 mL of the 42% transmittance cell suspension with 15 mL of an inoculation fluid (which inoculation fluid was formed by mixing 11.6 mL sterile water, 62.5 mL IF-0 base inoculation fluid and 0.9 mL of the tetrazolium dye “Biolog Redox Dye mix D”), resulting in a final cell density which was equal to 85% transmittance using a BioRad SmartSpec 3000 Photometer. 680 μL of a 2M sodium succinate/200 μM ferric citrate solution in distilled water was added to 68 mL of the 85% transmittance cell suspension and 100 μL of this mixture was added to each well (the various di-peptides being already present in powder form in the relevant wells of the plate as obtained from the supplier i.e. Biolog Inc.). All plates were incubated in an anaerobic atmosphere at 37° C. Color changes were measured spectrophotometrically at 492 nm (Thermo Scientific Multiskan Ascent) at 24 hrs and 48 hrs using the same plate at both time points. […] After 24 hrs and 48 hrs under continuous shaking in a Multiscan microplate reader, the optical density (OD) of the synthetic medium at 24 hours and 48 hours was measured (using the microplate reader) at a wavelength of 492 nm for each combination of bacterium/dipeptide, and for each of their respective controls (i.e. which contained the particular bacterium but no dipeptide). […] The experiment was carried out three times for each combination of bacterium with dipeptide, with each repeat being carried out on a different day (thus providing three biological replicas). The controls were also carried out three times, as above. The values shown are the average (mean) of the three single values obtained (as detailed above) for each combination of bacterium with dipeptide, at 24 hrs and at 48 hrs.

Prevotella intermedia = test: Metabolic activity, Biolog phenotype microarray; conditions: control without dipeptide = 1
Method: as §1

Streptococcus mutans = test: Metabolic activity, Biolog phenotype microarray; conditions: control without dipeptide = 1
Method: as §1

Actinomyces naeslundii = test: Metabolic activity, Biolog phenotype microarray; conditions: control without dipeptide = 1
Method: as §1

Streptococcus sobrinus = test: Metabolic activity, Biolog phenotype microarray; conditions: control without dipeptide = 1
Method: as §1

Streptococcus gordonii = test: Metabolic activity, Biolog phenotype microarray; conditions: control without dipeptide = 1
Method: as §1

Porphyromonas gingivalis = test: Metabolic activity, Biolog phenotype microarray; conditions: control without dipeptide = 1
Method: as §1

[1] = system: Aggregatibacter actinomycetemcomitans; test: Metabolic activity, Biolog phenotype microarray; conditions: control without dipeptide = 1
Method: as §1

Streptococcus salivarius = test: Metabolic activity, Biolog phenotype microarray; conditions: control without dipeptide = 1
Method: as §1

Streptococcus mitis = test: Metabolic activity, Biolog phenotype microarray; conditions: control without dipeptide = 1
Method: as §1

Tannerella forsythia = test: Metabolic activity, Biolog phenotype microarray; conditions: control without dipeptide = 1
Method: as §1

Streptococcus sanguinis = test: Metabolic activity, Biolog phenotype microarray; conditions: control without dipeptide = 1
Method: as §1

Capnocytophaga sputigena = test: Metabolic activity, Biolog phenotype microarray; conditions: control without dipeptide = 1
Method: as §1

Fusobacterium nucleatum = test: Metabolic activity, Biolog phenotype microarray; conditions: control without dipeptide = 1
Method: as §1

Actinomyces viscosus = test: Metabolic activity, Biolog phenotype microarray; conditions: control without dipeptide = 1
Method: as §1

[2] = system: beneficial oral bacteria and pathogenic oral bacteria; test: Metabolic activity, whole panel: prebiotic effect; conditions: for prebiotic effects (metabolic activity): threshold value of 2
Method: Substrates that were able to increase the metabolic activity of at least one of the above beneficial bacteria while not or only minimally increasing the growth of the pathogenic bacteria are considered to be prebiotic substrates. The extent of metabolic activity of the tested bacteria in the presence of the above-mentioned dipeptides after 24 hours and 48 hours was investigated through a high throughput phenotype microarray system (PM) for microbial cells (Biolog Inc.). Each PM can contain up to 95 different biochemical compounds (e.g. di-peptides) that may act as substrates for bacteria as well as one negative control, not containing the substrates. Microarray plates were used in which the different wells of each plate were pre-loaded (by the manufacturer, Biolog Inc.) with different di-peptides to be tested. Each bacterial species was tested using a separate microarray plate. Thus, a single bacterial species was tested with a variety of dipeptides on each particular plate. The microarrays are based on redox technology, using cell respiration as a universal reporter. Active cell respiration results in the reduction of a tetrazolium dye and in the formation of a strong color—for example, when using the tetrazolium dye “Biolog Redox Dye Mix D”, the color changes from transparent/colourless to purple when the dye is reduced. The observation of this color change indicates which of the substrates improve the metabolic activity and health of the cells. Each bacterial species was collected from blood agar plates (incubated for 48 hours anaerobically at 37° C.) and transferred to an IF-0 Base inoculation fluid (Biolog Inc.), which is a nutritionally poor medium. The resulting cell suspension was adjusted to a transmittance of 42% (relative to the transmittance of the base inoculation fluid with no bacterial species present) at 492 nm using a BioRad SmartSpec 3000 Photometer (the adjustment being effected by adding either further inoculation fluid or further bacteria until the transmittance of 42% was achieved). A 1:5 dilution of this suspension was prepared by mixing 3 mL of the 42% transmittance cell suspension with 15 mL of an inoculation fluid (which inoculation fluid was formed by mixing 11.6 mL sterile water, 62.5 mL IF-0 base inoculation fluid and 0.9 mL of the tetrazolium dye “Biolog Redox Dye mix D”), resulting in a final cell density which was equal to 85% transmittance using a BioRad SmartSpec 3000 Photometer. 680 μL of a 2M sodium succinate/200 μM ferric citrate solution in distilled water was added to 68 mL of the 85% transmittance cell suspension and 100 μL of this mixture was added to each well (the various di-peptides being already present in powder form in the relevant wells of the plate as obtained from the supplier i.e. Biolog Inc.). All plates were incubated in an anaerobic atmosphere at 37° C. Color changes were measured spectrophotometrically at 492 nm (Thermo Scientific Multiskan Ascent) at 24 hrs and 48 hrs using the same plate at both time points. […] After 24 hrs and 48 hrs under continuous shaking in a Multiscan microplate reader, the optical density (OD) of the synthetic medium at 24 hours and 48 hours was measured (using the microplate reader) at a wavelength of 492 nm for each combination of bacterium/dipeptide, and for each of their respective controls (i.e. which contained the particular bacterium but no dipeptide). […] The experiment was carried out three times for each combination of bacterium with dipeptide, with each repeat being carried out on a different day (thus providing three biological replicas). The controls were also carried out three times, as above. The values shown are the average (mean) of the three single values obtained (as detailed above) for each combination of bacterium with dipeptide, at 24 hrs and at 48 hrs. […] This value was selected in order to exclude low-stimulating metabolites and avoid false positive results.

Substance | metabolic activity: OD 492 nm divided by OD of control (Veillonella parvula; 24 hrs) | metabolic activity: OD 492 nm divided by OD of control (Veillonella parvula; 48 hrs) | metabolic activity: OD 492 nm divided by OD of control (Prevotella intermedia; 24 hrs) | metabolic activity: OD 492 nm divided by OD of control (Prevotella intermedia; 48 hrs) | metabolic activity: OD 492 nm divided by OD of control (Streptococcus mutans; 24 hrs) | metabolic activity: OD 492 nm divided by OD of control (Streptococcus mutans; 48 hrs) | metabolic activity: OD 492 nm divided by OD of control (Actinomyces naeslundii; 24 hrs) | metabolic activity: OD 492 nm divided by OD of control (Actinomyces naeslundii; 48 hrs) | metabolic activity: OD 492 nm divided by OD of control (Streptococcus sobrinus; 24 hrs) | metabolic activity: OD 492 nm divided by OD of control (Streptococcus sobrinus; 48 hrs) | metabolic activity: OD 492 nm divided by OD of control (Streptococcus gordonii; 24 hrs) | metabolic activity: OD 492 nm divided by OD of control (Streptococcus gordonii; 48 hrs) | metabolic activity: OD 492 nm divided by OD of control (Porphyromonas gingivalis; 24 hrs) | metabolic activity: OD 492 nm divided by OD of control (Porphyromonas gingivalis; 48 hrs) | metabolic activity: OD 492 nm divided by OD of control ([1]; 24 hrs) | metabolic activity: OD 492 nm divided by OD of control ([1]; 48 hrs) | metabolic activity: OD 492 nm divided by OD of control (Streptococcus salivarius; 24 hrs) | metabolic activity: OD 492 nm divided by OD of control (Streptococcus salivarius; 48 hrs) | metabolic activity: OD 492 nm divided by OD of control (Streptococcus mitis; 24 hrs) | metabolic activity: OD 492 nm divided by OD of control (Streptococcus mitis; 48 hrs) | also measured
Ser-Leu | 1.4153 | 1.4281 | 1.5403 | 1.8484 | 1.6244 | 2.2977 | 1.4949 | 1.8831 | 1.4887 | 2.0704 | 1.5333 | 1.8912 | 1.4626 | 1.8440 | 1.6871 | 2.2912 | 1.4865 | 2.0833 | 1.6052 | 2.0461 | metabolic activity: OD 492 nm divided by OD of control (Tannerella forsythia; 24 hrs): 1.3950; metabolic activity: OD 492 nm divided by OD of control (Tannerella forsythia; 48 hrs): 1.8466; metabolic activity: OD 492 nm divided by OD of control (Streptococcus sanguinis; 24 hrs): 1.2625; metabolic activity: OD 492 nm divided by OD of control (Streptococcus sanguinis; 48 hrs): 1.6049; metabolic activity: OD 492 nm divided by OD of control (Capnocytophaga sputigena; 24 hrs): 1.9645; metabolic activity: OD 492 nm divided by OD of control (Capnocytophaga sputigena; 48 hrs): 1.6522; metabolic activity: OD 492 nm divided by OD of control (Fusobacterium nucleatum; 24 hrs): 1.4813; metabolic activity: OD 492 nm divided by OD of control (Fusobacterium nucleatum; 48 hrs): 1.7358; metabolic activity: OD 492 nm divided by OD of control (Actinomyces viscosus; 24 hrs): 2.2523; metabolic activity: OD 492 nm divided by OD of control (Actinomyces viscosus; 48 hrs): 2.5540; prebiotic effects (metabolic activity) ([2]; 24 hrs): exhibited prebiotic effects; speed of metabolism by beneficial versus pathogenic bacteria ([2]; value of 2 reached at 24 hrs for beneficial but not pathogenic bacteria): metabolized faster by the beneficial bacteria than by the pathogenic bacteria
Trp-Leu | 0.8734 | 0.7918 | 1.0663 | 1.0399 | 1.0145 | 1.1337 | 1.1778 | 1.4354 | 1.1681 | 1.2761 | 1.2109 | 1.2858 | 1.0236 | 1.2127 | 1.0357 | 1.1455 | 1.0960 | 1.1505 | 1.0445 | 1.0524 | metabolic activity: OD 492 nm divided by OD of control (Tannerella forsythia; 24 hrs): 1.0234; metabolic activity: OD 492 nm divided by OD of control (Tannerella forsythia; 48 hrs): 1.1079; metabolic activity: OD 492 nm divided by OD of control (Streptococcus sanguinis; 24 hrs): 0.9310; metabolic activity: OD 492 nm divided by OD of control (Streptococcus sanguinis; 48 hrs): 0.9561; metabolic activity: OD 492 nm divided by OD of control (Capnocytophaga sputigena; 24 hrs): 0.8565; metabolic activity: OD 492 nm divided by OD of control (Capnocytophaga sputigena; 48 hrs): 0.9454; metabolic activity: OD 492 nm divided by OD of control (Fusobacterium nucleatum; 24 hrs): 0.9945; metabolic activity: OD 492 nm divided by OD of control (Fusobacterium nucleatum; 48 hrs): 1.0254; metabolic activity: OD 492 nm divided by OD of control (Actinomyces viscosus; 24 hrs): 1.6496; metabolic activity: OD 492 nm divided by OD of control (Actinomyces viscosus; 48 hrs): 2.0774; prebiotic effects (metabolic activity) ([2]; 48 hrs): exhibited prebiotic effects
